Earlier results in patent EP2077109A1, “AMIDE COMPOUND, SALT THEREOF, AND BIOFILM REMOVER USING THEM” (The University of Tokyo, priority 2006, dated 2008).

System: autoinducer
Conditions: statement taken from Patent Document 1 (JP 2006-512290)

## CCCCCCCCCC(=O)CC(=O)NN1CCCCC1
  autoinducer agonist activity: exhibits autoinducer agonist activity
